Measurements published in the supplement of paper PMC12137928.
Structures can show the parent of a compound that is named as a salt.

Test system: HCT116
Settings: 72 h
In short: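 Each well of the 1536-well plates received 250 HCT116 cells, which attached over 5 h. Luminescence was measured with CellTiter-Glo, scaled with vehicle as 0% and positive control as -100%, and pattern-corrected. A four-parameter Hill fit yielded IC50 and maximal efficacy.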

SMILES | IC50 cell viability (ICRF193 0 nM) | IC50 cell viability (ICRF193 200 nM)
CN1N=C2CCN(C(=O)[C@@H](COCc3ccccc3)NC(=O)C(C)(C)N)C[C@@]2(Cc2ccccc2)C1=O [Capromorelin] | > 45.8 µM | > 45.8 µM
O=C1C2CC=CCC2C(=O)N1SC(Cl)(Cl)Cl (stereo not given) [Captan] | > 45.8 µM | > 45.8 µM
C[C@H](CS)C(=O)N1CCC[C@H]1C(=O)O [Captopril] | > 45.8 µM | > 45.8 µM
CCN(CC)CCOC(=O)C1(c2ccccc2)CCCC1 [Caramiphen edisylate] | > 45.8 µM | > 45.8 µM
C[N+](C)(C)CCOC(N)=O [Carbachol] | > 45.8 µM | > 45.8 µM
COC(=O)N/N=C/c1c[n+]([O-])c2ccccc2[n+]1[O-] [Carbadox] | > 45.8 µM | > 45.8 µM
NC(=O)N1c2ccccc2C=Cc2ccccc21 [Carbamazepine] | > 45.8 µM | > 45.8 µM
CNC(=O)Oc1cccc2ccccc12 [Carbaryl] | > 45.8 µM | > 45.8 µM
CN1C2=CC(=O)/C(=N\NC(N)=O)C=C2CC1S(=O)(=O)O (stereo not given) [Carbazochrome sodium sulfonate] | > 45.8 µM | > 45.8 µM
CC1(C)S[C@@H]2[C@H](NC(=O)C(C(=O)O)c3ccccc3)C(=O)N2[C@H]1C(=O)O (stereo not given in full) [Carbenicillin disodium] | > 45.8 µM | > 45.8 µM
CC1(C)S[C@@H]2[C@H](NC(=O)C(C(=O)Oc3ccc4c(c3)CCC4)c3ccccc3)C(=O)N2[C@H]1C(=O)O (stereo not given in full) [Carbenicillin indanyl] | > 45.8 µM | > 45.8 µM
CC1(C)[C@@H](OC(=O)CCC(=O)O)CC[C@]2(C)[C@H]3C(=O)C=C4[C@@H]5C[C@@](C)(C(=O)O)CC[C@]5(C)CC[C@@]4(C)[C@]3(C)CC[C@@H]12 [Carbenoxolone sodium] | > 45.8 µM | > 45.8 µM
CCN(CC)CCOCCOC(=O)C1(c2ccccc2)CCCC1 [Carbetapentane] | > 45.8 µM | > 45.8 µM
C[C@@](Cc1ccc(O)c(O)c1)(NN)C(=O)O [Carbidopa] | > 45.8 µM | > 45.8 µM
CCOC(=O)n1ccn(C)c1=S [Carbimazole] | > 45.8 µM | > 45.8 µM
CN(C)CCOC(c1ccc(Cl)cc1)c1ccccn1 (stereo not given) [Carbinoxamine maleate] | > 45.8 µM | > 45.8 µM

SMILES | IC50 cell viability (ICRF193 0 nM) | IC50 cell viability (ICRF193 200 nM)
N[C@@H](CSCC(=O)O)C(=O)O [Carbocysteine] | > 45.8 µM | > 45.8 µM
COC(COC(N)=O)C1=C(N2CC2)C(=O)C(C)=C(N2CC2)C1=O (stereo not given) [Carboquone] | > 45.8 µM | > 45.8 µM
CN(C)C(=O)N[C@H]1CC[C@H](CCN2CCN(c3cccc(Cl)c3Cl)CC2)CC1 [Cariprazine] | > 45.8 µM | > 45.8 µM
O=NN(CCCl)C(=O)NCCCl [Carmustine] | > 45.8 µM | > 45.8 µM
CC(C(=O)O)c1ccc2c(c1)[nH]c1ccc(Cl)cc12 (stereo not given) [Carprofen] | > 45.8 µM | > 45.8 µM
COC(=O)CCC[N+](C)(C)C [Carpronium chloride] | > 45.8 µM | > 45.8 µM
CC(C)(C)NCC(O)COc1cccc2c1CCC(=O)N2 (stereo not given) [Carteolol hydrochloride] | > 45.8 µM | > 45.8 µM
CC[C@H](C)C[C@H](C)CCCCCCCCC(=O)N[C@H]1C[C@@H](O)[C@@H](NCCN)NC(=O)[C@@H]2[C@@H](O)CCN2C(=O)[C@H]([C@H](O)CCN)NC(=O)[C@H]([C@H](O)[C@@H](O)c2ccc(O)cc2)NC(=O)[C@@H]2C[C@@H](O)CN2C(=O)[C@H]([C@@H](C)O)NC1=O [Caspofungin Acetate] | > 45.8 µM | > 45.8 µM
CC(=O)OCC1=C(C(=O)O)N2C(=O)[C@@H](NC(=O)CC#N)[C@H]2SC1 [Cefacetrile] | > 45.8 µM | > 45.8 µM
CC1=C(C(=O)O)N2C(=O)[C@@H](NC(=O)[C@H](N)c3ccc(O)cc3)[C@H]2SC1 [Cefadroxil] | > 45.8 µM | > 45.8 µM
NC(=O)c1cc[n+](CC2=C(C(=O)[O-])N3C(=O)[C@@H](NC(=O)Cc4cccs4)[C@H]3SC2)cc1 [Cefalonium] | > 45.8 µM | > 45.8 µM
Cn1nnnc1SCC1=C(C(=O)O)N2C(=O)[C@@H](NC(=O)[C@H](OC=O)c3ccccc3)[C@H]2SC1 [Cefamandole (nafate)] | > 45.8 µM | > 45.8 µM
N[C@@H](C(=O)N[C@@H]1C(=O)N2C(C(=O)O)=C(CSc3c[nH]nn3)CS[C@H]12)c1ccc(O)cc1 [Cefatrizine] | > 45.8 µM | > 45.8 µM
Cc1nnc(SCC2=C(C(=O)O)N3C(=O)[C@@H](NC(=O)Cn4cnnn4)[C@H]3SC2)s1 [Cefazolin] | > 45.8 µM | > 45.8 µM
CCN1CCN(C(=O)N[C@@H](C(=O)N[C@]2(OC)C(=O)N3C(C(=O)O)=C(CSc4nnnn4C)CS[C@@H]32)[C@H](C)O)C(=O)C1=O [Cefbuperazone] | > 45.8 µM | > 45.8 µM
CC/C=C(\C(=O)N[C@@H]1C(=O)N2C(C(=O)OCOC(=O)C(C)(C)C)=C(COC(N)=O)CS[C@H]12)c1csc(N)n1 [Cefcapene pivoxil hydrochloride] | > 45.8 µM | > 45.8 µM

The remaining lines, values ahead:

IC50 cell viability (ICRF193 0 nM) | IC50 cell viability (ICRF193 200 nM) | SMILES
> 45.8 µM | > 45.8 µM | C=CC1=C(C(=O)O)N2C(=O)[C@@H](NC(=O)/C(=N\O)c3csc(N)n3)[C@H]2SC1 [Cefdinir]
> 45.8 µM | > 45.8 µM | CO/N=C(\C(=O)N[C@@H]1C(=O)N2C(C(=O)OCOC(=O)C(C)(C)C)=C(/C=C\c3scnc3C)CS[C@H]12)c1csc(N)n1 [Cefditoren (Pivoxil)]
> 45.8 µM | > 45.8 µM | CO/N=C(/C(=O)N[C@@H]1C(=O)N2C(C(=O)OCOC(=O)C(C)(C)C)=C(C)CS[C@H]12)c1csc(N)n1 [Cefetamet pivoxil HCl]
> 45.8 µM | > 45.8 µM | C=CC1=C(C(=O)O)N2C(=O)[C@@H](NC(=O)/C(=N\OCC(=O)O)c3csc(N)n3)[C@H]2SC1 [Cefixime]
> 45.8 µM | > 45.8 µM | CO[C@@]1(NC(=O)CSCC#N)C(=O)N2C(C(=O)O)=C(CSc3nnnn3C)CS[C@@H]21 [Cefmetazole sodium]
> 45.8 µM | > 45.8 µM | CO[C@@]1(NC(=O)CSC[C@@H](N)C(=O)O)C(=O)N2C(C(=O)O)=C(CSc3nnnn3C)CS[C@@H]21 [Cefminox sodium]
> 45.8 µM | > 45.8 µM | CCN1CCN(C(=O)N[C@@H](C(=O)N[C@@H]2C(=O)N3C(C(=O)O)=C(CSc4nnnn4C)CS[C@H]23)c2ccc(O)cc2)C(=O)C1=O [Cefoperazone sodium]
> 45.8 µM | > 45.8 µM | NCc1ccccc1CC(=O)N[C@@H]1C(=O)N2C(C(=O)O)=C(CSc3nnnn3CC(=O)O)CS[C@H]12 [Ceforanide]
> 45.8 µM | > 45.8 µM | CO/N=C(\C(=O)N[C@@H]1C(=O)N2C(C(=O)[O-])=C(C[n+]3ccc(N)n3CCO)CS[C@H]12)c1csc(N)n1 [Cefoselis (sulfate)]
> 45.8 µM | > 45.8 µM | CO/N=C(\C(=O)N[C@@H]1C(=O)N2C(C(=O)O)=C(COC(C)=O)CS[C@H]12)c1csc(N)n1 [Cefotaxime sodium salt]
> 45.8 µM | > 45.8 µM | CN(C)CCn1nnnc1SCC1=C(C(=O)O)N2C(=O)[C@@H](NC(=O)Cc3csc(N)n3)[C@H]2SC1 [Cefotiam hydrochloride]
> 45.8 µM | > 45.8 µM | CO[C@@]1(NC(=O)Cc2cccs2)C(=O)N2C(C(=O)O)=C(COC(N)=O)CS[C@@H]21 [Cefoxitin]
> 45.8 µM | > 45.8 µM | CO/N=C(\C(=O)N[C@@H]1C(=O)N2C(C(=O)[O-])=C(C[n+]3ccn4ncccc43)CS[C@H]12)c1nsc(N)n1 [Cefozopran hydrochloride]
> 45.8 µM | > 45.8 µM | Cc1cc(O)c(C(=O)N[C@@H](C(=O)N[C@@H]2C(=O)N3C(C(=O)O)=C(CSc4nnnn4C)CS[C@H]23)c2ccc(O)cc2)cn1 [Cefpiramide (sodium)]
> 45.8 µM | > 45.8 µM | CC=CC1=C(C(=O)O)N2C(=O)[C@@H](NC(=O)[C@H](N)c3ccc(O)cc3)[C@H]2SC1 [Cefprozil]
> 45.8 µM | > 45.8 µM | COC1=C(C(=O)O)N2C(=O)[C@@H](NC(=O)[C@H](N)C3=CCC=CC3)[C@H]2SC1 [Cefroxadine]
> 45.8 µM | > 45.8 µM | NC(=O)c1cc[n+](CC2=C(C(=O)[O-])N3C(=O)[C@@H](NC(=O)[C@@H](c4ccccc4)S(=O)(=O)O)[C@H]3SC2)cc1 [Cefsulodin Sodium Salt]
> 45.8 µM | > 45.8 µM | CC(C)(O/N=C(\C(=O)N[C@@H]1C(=O)N2C(C(=O)[O-])=C(C[n+]3ccccc3)CS[C@H]12)c1csc(N)n1)C(=O)O [Ceftazidime]
> 45.8 µM | > 45.8 µM | CO/N=C(\C(=O)N[C@@H]1C(=O)N2C(C(=O)O)=C(Cn3nnc(C)n3)CS[C@H]12)c1csc(N)n1 [Cefteram]
> 45.8 µM | > 45.8 µM | O=C(Cn1cnnn1)N[C@@H]1C(=O)N2C(C(=O)O)=C(CSc3nncs3)CS[C@H]12 [Ceftezole sodium]
> 45.8 µM | > 45.8 µM | CO/N=C(\C(=O)N[C@@H]1C(=O)N2C(C(=O)O)=C(CSc3nc(=O)c(O)nn3C)CS[C@H]12)c1csc(N)n1 [Ceftriaxone disodium trihydrate]
> 45.8 µM | > 45.8 µM | CO/N=C(\C(=O)N[C@@H]1C(=O)N2C(C(=O)OC(C)OC(C)=O)=C(COC(N)=O)CS[C@H]12)c1ccco1 (stereo not given in full) [Cefuroxime Axetil]
> 45.8 µM | > 45.8 µM | CO/N=C(\C(=O)N[C@@H]1C(=O)N2C(C(=O)O)=C(CSc3cnns3)CS[C@H]12)c1csc(N)n1 [Cefuzonam hydrochloride]
